Laboratory results reported in patent publication US12404284B2, “Spirocyclic inhibitors of hepatitis B virus” (Ospedale San Raffaele S.r.l., priority 2020, dated 2025).

How the values were obtained:
[1] = system: HBV; test: Anti-HBV activity in vitro: extracellular HBV DNA by direct qPCR in HepAD38 cells; format: cell-based; conditions: Hepatitis B virus, doxycycline-free medium, 96 hours, read-out: HBV inh EC50
From the text: HepAD38 cell line (Ladner et al., Antimicrob Agents Chemother, 1997, 41, 1715-20) was used for HBV inhibition assays. HepAD38 is a subclone, derived from hepatoblastoma cell line HepG2 (ATCC® Number: HB-8065™), that expresses HBV genome under the transcriptional control of a tetracycline-responsive promoter in a TET-OFF system: addition of doxycycline, an antibiotic belonging to the class of tetracycline, suppresses HBV replication, while its removal switches on the process allowing HBV viral particles release in the cell supernatant. […]
Anti-HBV activity in vitro HBV inhibition activity in vitro was performed in 96 multiwell plates. […] From the dose-response curves, half maximal effective concentration (EC50) could be calculated (see also below). […]
Plates were then incubated 96 hours at 37° C. and then subjected to cell viability assays and extracellular HBV quantification, in order to evaluate both the cytotoxic potential and the anti-viral activity of compounds. Cytotoxicity was assessed by a commercial fluorescence assay that measures the metabolic activity of cells, directly related to cell viability (Cell Titer Blue, Promega). Anti-HBV activity was evaluated by quantification of extracellular HBV DNA with direct qPCR. […]

[2] = system: HBV; conditions: Phase 1b clinical studies; cited from earlier work

| SMILES | EC50 [1] [nM] | reduction in HBV DNA [2] | reduction in serum HBV RNA [2] |
| --- | --- | --- | --- |
| Cn1cc2c(c1C(=O)Nc1ccc(F)c(Cl)c1)OC[C@@]1(CCN(C(=O)C(=O)NCC(F)(F)F)C1)NS2(=O)=O [Example E25, (S)—N-(3-chloro-4-fluorophenyl)-7′-methyl-1-(2-oxo-2-((2,2,2-trifluoroethyl)amino)acetyl)-2′H,4′H,7′H-spiro[pyrrolidine-3,3′-pyrrolo[3,4-b][1,4,5]oxathiazepine]-6′-carboxamide 1′,1′-dioxide] | < 500 | – | – |
| O=C(Nc1cc(F)c(F)c(F)c1)c1ccc(F)c(S(=O)(=O)N2CCC(O)CC2)c1 [NVR3-778] | – | significant reduction | significant reduction |
| C[C@@H](NC(=O)C(=O)N1CCC2(CC1)COc1c(c(Cl)n(C)c1C(=O)Nc1ccc(F)c(C(F)F)c1)S(=O)(=O)N2)C(F)(F)F [Example E35, (R)-8′-chloro-N-(3-(difluoromethyl)-4-fluorophenyl)-7′-methyl-1-(2-oxo-2-((1,1,1-trifluoropropan-2-yl)amino)acetyl)-2′H,4′H,7′H-spiro[piperidine-4,3′-pyrrolo[3,4-b][1,4,5]oxathiazepine]-6′-carboxamide 1′,1′-dioxide] | < 500 | – | – |
